Experimental data from US8501693B2, “Use of exendins and exendin agonists and GLP-1 receptor agonists for altering the concentration of fibrinogen” (Amylin Pharmaceuticals, LLC, priority 2006, dated 2013).

Key:
[1] = test system: lipoprotein subclass particles (LDL, HDL, VLDL); assay: Lipoprotein subclass particle concentration and particle size by proton NMR in the 1-year open-label exenatide vs biphasic insulin aspart trial; assay type: in vivo, human; conditions: change from baseline to endpoint
Method: Lipoprotein subclass particle concentrations and average particle diameters are measured using proton nuclear magnetic resonance spectroscopy.
The particle concentrations of different lipoprotein subclasses are obtained by measuring the amplitudes of the characteristic lipid methyl NMR signals. The signal amplitudes of various subclasses are extracted from the overall lipid methyl group signal with a spectral deconvolution algorithm (LipoScience, Inc.). See e.g., Festa. VLDL and LDL particle concentrations are given in nanomoles per liter. HDL particle concentrations are provided in micromoles per liter.
Average particle sizes (in nanometers diameter) are computed as the sum of the diameter of the particle subclass multiplied by the relative mass percentage of the subclass as estimated from the amplitude of its methyl NMR signal.
Particle concentrations and sizes are compared before and after administration of an exendin or exendin agonist. See e.g., Table 1.

[2] = test system: Fibrinogen; assay: Fibrinogen concentration by the von Clauss clotting method in the 1-year open-label exenatide vs biphasic insulin aspart trial; assay type: in vivo, human; conditions: patients with type 2 diabetes
Method: For test meal data, postprandial glucose incremental AUC0-4h is calculated at baseline and week 52.
Fibrinogen activity is measured by the von Clauss clotting method. By the von Clauss clotting method, thrombin is added to a test sample and the time until clotting is measured. Fibrinogen concentration is determined by comparing clotting time for the test sample to the clotting time of a standard curve for various reference plasmas.
Fibrinogen is measured at baseline, Week 16, Week 52, or at early termination of the study.

[3] = patients with type 2 diabetes, fasting
[4] = particle concentration, patients with type 2 diabetes

biphasic insulin aspart 30/70
LDL Particle Size Δ mean (SEM) ([1]; patients with type 2 diabetes inadequately controlled by sulphonylurea and metformin, fasting): +0.11 (0.12) p = .356 nm
HDL Particle Size Δ mean (SEM) [1, 3]: +0.04 (0.05) p = .391 nm
VLDL Particle Size Δ mean (SEM) [1, 3]: −1.6 (2.2) p = .482 nm
Large HDL Δ mean (SEM) [1, 4]: +1.0 (0.4) p = .014 μmol/L
Large LDL Δ mean (SEM) [1, 4]: +37.7 (32.8) p = .258 nmol/L
Small LDL Δ mean (SEM) [1, 4]: −25.8 (81.2) p = .753 nmol/L
Small VLDL Δ mean (SEM) [1, 4]: +8.5 (4.2) p = .049 nmol/L
Total HDL Δ mean (SEM) [1, 4]: +2.5 (0.9) p = .012 μmol/L
Total LDL Δ mean (SEM) [1, 4]: +5.0 (75) p = .947 nmol/L
Total VLDL Δ mean (SEM) [1, 4]: +12.9 (6.6) p = .056 nmol/L
Very Small LDL Δ mean (SEM) [1, 4]: −17.0 (64.6) p = .794 nmol/L
Fibrinogen level, Mean, Baseline ([2]; Baseline (before treatment) of the treatment group): 4.22 g/L
Fibrinogen level, Mean, Endpoint (LOCF) ([2]; Endpoint, last post-baseline measurement carried forward (Week 16, Week 52 or early termination)): 4.16 g/L
